T1: P18 protein (human P18INK4C residues 1-168), recombinant (human, UniProt P42773 1-168)
T1 construct: Human P18 (P18INK4C, CDKN2C), residues 1-168, called full-length P18 protein in the results; The purification of this protein is not described; only that of His6-MCL1 is; also called CDKN2C; full-length P18 protein; source: E. coli BL21(DE3), recombinant
T1 sequence (looked up): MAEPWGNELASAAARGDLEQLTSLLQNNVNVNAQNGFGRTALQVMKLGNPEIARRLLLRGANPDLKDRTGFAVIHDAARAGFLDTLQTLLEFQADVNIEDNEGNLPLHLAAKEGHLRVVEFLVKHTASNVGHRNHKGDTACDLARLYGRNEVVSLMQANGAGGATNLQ


Assays:
[1] = tested on: MCL1 protein in PC3 and WAC2 cells; experiment: Western blot of MCL1 protein in treated cells; assay type: cell-based, human; conditions: PC3 or WAC2 cells, 4 h, 10 µM LeuP, 30 µM BTZ or 10 µM LeuP + 30 µM BTZ (Fig. 5), BTZ 10, 20 or 30 µM in PC-3 (Fig. S4), N = 3
Experimental: (§1) Whole-cell lysates were prepared by lysing cells on ice with 1× RIPA buffer (Boston BioProducts): 50 mM Tris-HCl pH 7.4, 150 mM NaCl, 1% NP40, 0.5% sodium deoxycholate and water (rest) supplemented with protease inhibitors (1 mM AEBSF, 0.8 μM aprotinin, 0.05 mM bestatin, 0.015 mM E-64, 0.02 mM leupeptin, 0.01 mM pepstatin A). Protein lysates were resolved by sodium dodecyl sulfate–polyacrylamide gel electrophoresis and transferred to polyvinylidene fluoride membrane in a wet transfer system for 1 h at 100 V. Membranes were incubated with anti-MCL1 Abs (D2W9E and D35A5, Cell Signaling), anti-BAX Abs (D2E11, Cell Signaling), anti-P18 Abs, DCS-118 from Cell Signaling, anti-β-actin Abs, PA1–21167, from Pierce (Rockford, IL, USA), and anti-CDK6 Ab, (C-21): sc-177 from Santa Cruz at a dilution of 1:1000, at 4 °C overnight. HRP-conjugated secondary Abs were used for detection using ECL2 reagent (Pierce). Immunoblots were visualized on Bio-Rad ChemiDoc MP imaging system.
Fig. 5 MCL1 impact on P18 degradation. […] Quantification of band intensity shown below blot. […] The statistical significance was determined by unpaired Student t-test where […].
Figure S4. […] Quantification of band intensity shown below blot. […] The statistical significance was determined by unpaired Student t-test where *P<0.05; **P<0.01; ***P<0.001.

[2] = tested on: P18 protein in PC3 and WAC2 cells; experiment: Western blot of P18 protein in treated cells; assay type: cell-based, human; conditions: for P18 protein level: Western blot, PC3 or WAC2 cells, 4 h, 10 µM LeuP, 30 µM BTZ or 10 µM LeuP + 30 µM BTZ (Fig. 5), BTZ 10, 20 or 30 µM in PC-3 (Fig. S4), N = 3
Experimental: as §1
Fig. 5 MCL1 impact on P18 degradation. Western blot of DMSO control (0.3%), 10 µM leupeptin (LeuP), 10 µM LeuP + 30µM bortezomib (BTZ), or 30 µM BTZ treated (a) PC3 cells or (b) WAC2 cells for 4 h. Quantification of band intensity shown below blot. All data are presented as mean ± S.D., N = 3. The statistical significance was determined by unpaired Student t-test where […].
Figure S4. Bortezomib inversely impacts MCL1 and P18. Western blot of bortezomib treated PC-3 cells (10, 20, or 30 uM) for 4 hours. Quantification of band intensity shown below blot. All data are presented as mean ± S.D., N=3. The statistical significance was determined by unpaired Student t-test where *P<0.05; **P<0.01; ***P<0.001.

[3] = target: T1, P18 protein (human P18INK4C residues …); experiment: pull-down; in vitro pulldown of recombinant P18, P16, truncated and chimeric proteins (IP) with recombinant MCL1 (IB); conditions: both partners purified

Row | Molecule | MCL1 protein level [1] | P18 protein level [2] | effect of bortezomib on MCL1-induced loss of P18 protein ([2]; proteasome inhibitor bortezomib, Fig. 5 and Fig. S4) | binding result [3]
1 | CC(C)C[C@H](NC(=O)[C@H](Cc1ccccc1)NC(=O)c1cnccn1)B(O)O [bortezomib] | increase in MCL1 protein | decrease in P18 protein | does not rescue this effect | 
2 | CC(=O)N[C@@H](CC(C)C)C(=O)N[C@@H](CC(C)C)C(=O)N[C@H](C=O)CCCNC(=N)N [leupeptin] | marginal to no impact | marginal to no impact |  | 
3 | His6-MCL1 (human MCL1 residues 163-326) (domain or fragment, UniProt Q07820 163-326, looked up, Named His6-MCL1 in the FPA; called rMCL1 in the pull-downs; also called His-MCL1; recombinant MCL1; source: E. coli BL21(DE3), purified (nickel column, gel filtration); not shown: His6, N-terminal, kept) TPPPAEEEEDELYRQSLEIISRYLREQATGAKDTKPMGRSGATSRKALETLRRVGDGVQRNHETAFQGMLRKLDIKNEDDVKSLSRVMIHVFSDGVTNWGRIVTLISFGAFVAKHLKTINQESCIEPLAESITDVLVRTKRDWLVKQRGWDGFVEFFHVEDLEG |  |  |  | binds
